The text below walks through data of article PMC4451689, “A Novel Direct Factor Xa Inhibitory Peptide with Anti-Platelet Aggregation Activity from Agkistrodon acutus Venom Hydrolysates” (Scientific Reports, 2015).

Marks after values point to notes of the source that are not given here. Where a SMILES comes first, the peptide text is derived from it.

Data set [1] concerns the target T1, FXa (Homo sapiens, UniProt P00742). Kind of data set: Inhibition of amidolytic activity of FXa (chromogenic substrate S-2222). The note with it: sample dissolved at 5 mg/mL, PBS pH 8.34, 37 °C, n = 3, compared with the other fractions/hydrolysates. The data set is classed as biochemical. The method, then: Figure 1 Selection of enzymatic hydrolysis conditions and bioassay-directed chromatographic separation of the FXa inhibitory peptide. (a) FXa inhibitory activities of Agkistrodon acutus venom hydrolysates obtained by treatment with pepsin, papain, neutrase and alcalase at 1, 2, 3, 4, 8, 12 h intervals. (b) Agkistrodon acutus venom hydrolysate produced by neutrase (3 h) was separated on a gel filtration column packed with Sephadex G-50 (2.6 × 100 cm). The hydrolysate was eluted by distilled water at a flow rate of 0.6 mL/min, collecting fractions of 3.6 mL. (c) The FXa inhibitory activities of fractions A-E. (d) Fraction C was separated on a Hedera ODS-2 column (20 × 250 mm). (e) The FXa inhibitory activities of fractions C1-C8. […]
The lyophilized neutrase hydrolysate (0.2 g) was dissolved in 10 mL of distilled water and applied to a Sephadex G-50 column (2.6 × 100 cm) equilibrated with distilled water and eluted with the same buffer at a flow rate of 0.6 mL/min. The eluents were monitored at 280 nm and were collected at 6 min intervals. […] The UV absorbance was monitored at 214 nm.
Inhibition of the amidolytic activity of FXa was analyzed by a method described previously, with minor modifications. Enzymatic activity was measured in PBS at pH 8.34 using the chromogenic substrate method. […] The absorbance-time curve and the slope of the curve (Vi) were used to represent the activity of the enzyme. […]

The test system of data set [2] is arterio-venous shunt thrombosis in rats. Description: In vivo arterio-venous shunt thrombosis in rats. The note with it: aspirin 20 mg/kg, rat; mean ± SEM, n = 6. On the set-up: species or system Sprague-Dawley rats. As for the experimental part: Figure 6 ACH-11 inhibited arterio-venous shunt thrombosis in rats in vivo. After the administration of ACH-11 (0.33, 1 and 3 mg/kg), aspirin and the vehicle, rats were anesthetized by intraperitoneal injection of chloral hydrate (350 mg/kg), and an arterio-venous shunt tube (12 cm, containing 10-cm long of 4 braided silk thread) was installed between the right carotid artery and left jugular vein of each rat. After 20 min, the silk thread was removed from the shunt tube, and its wet weight was immediately measured. The dry weight of the thread was measured 6 h later at room temperature. The wet and dry weights of the formed thrombi were determined by subtracting the pre-experiment weights of the wet and dry 6-cm threads, respectively. Data are the mean ± SD, ^*P < 0.05, ^***P < 0.001 and ^****P < 0.0001 versus vehicle, n = 6, analyzed by one-way ANOVA, followed by the Tukey multiple comparison test. […]
Antithrombotic activity of ACH-11 in vivo was determined in a rat arterio-venous shunt thrombosis model as described previously[39] with a minor modification. […] Its wet weight was measured immediately. The dry weight of thread was measured 6 h later at room temperature. The wet and dry weights of the thrombi were determined by subtracting the pre-experimental weights of the wet and dry 6-cm threads, respectively.

The test system of a further data set is bleeding time in mice. Description: Bleeding time (tail cutting method). The data set is classed as in vivo. The settings on record: n = 10; for bleeding time: tail in saline 37 °C, 20-min recording, mean ± SD. The method, then:
Fifteen minutes after the administration of ACH-11 (1, 3 and 9 mg/kg), aspirin (9 mg/kg for 30 min) and the vehicle, a 3 mm-long tail tip was cut from the mice, and the remaining tail was immersed immediately into saline at 37 °C. The accumulated bleeding time (including periods of re-bleeding) was recorded over a 20-min period. Data are presented as the mean ± SD (n = 10). ^****P < 0.0001, ^**P < 0.01 versus vehicle, analyzed by one-way ANOVA, followed by the Tukey multiple comparison test.
(§1) Institute of Cancer Research (ICR) mice (18–22 g), Sprague-Dawley rats (180–250 g) and New Zealand white rabbits (2–2.5 kg) were purchased from Nanjing Qinglongshan Animal Center (Jiangsu province, China). They were housed in a temperature-controlled room at 25 ± 2 °C and 50 ± 5% relative humidity with a l2 h dark/light cycle. They were given free access to food and water ad libitum. The animals were acclimatized for at least 1 week prior to use. All experiments were carried out in accordance with the guidelines and the regulations of the Ethical Committee of the China Pharmaceutical University. The protocols were approved by the Institutional Animal Care and Use Committee of the China Pharmaceutical University.
Bleeding time of the mice was measured by a tail cutting method as described previously. Mice were randomly divided into five groups (both sexes, 10 per group), including a vehicle group, a reference drug group (9 mg/kg of aspirin-treated) and three sample groups (1, 3 and 9 mg/kg of ACH-11-treated).

In data set [3] the test system is ADP-induced acute pulmonary thrombosis in mice. Kind of data set: ADP-induced acute pulmonary thrombosis in mice. The note with it: aspirin 20 mg/kg, ADP 300 mg/kg i.v. The data set is classed as in vivo, ICR mice. As for the experimental part: To examine whether ACH-11 exerted antithrombotic effects in vivo, the peptide was challenged in an acute pulmonary thrombosis model in mice. Aspirin, which is a clinical anti-thrombosis medicine that acts as a selective COX-1 inhibitor, was used as a positive control. In this model, small thrombi formed by intravenous injection of ADP (300 mg/kg) occluded pulmonary vessels, resulting in paralysis or death of the mice.
as §1
ADP-induced acute pulmonary thrombosis in mice was performed as described previously. Sixty ICR mice (18–22 g) were fasted overnight and randomly divided into 6 groups, with 10 mice per group (males and females in half). […]

Data set [4] deals with U46619-induced rabbit platelet aggregation. Kind of data set: In vitro platelet aggregation assay, U46619-induced. The note with it: U46619 6 μM, rabbit PRP, turbidimetric, preincubated 5 min; 95% CI 415.62–525.95 μM. The format is cell-based. As for the experimental part: (§2) Figure 5 ACH-11 inhibited ADP- and U46619-induced rabbit platelet aggregation in vitro. PRP was preincubated for 5 min with different concentrations of ACH-11 (0.1, 0.25, 0.5 and 1 mg/mL) or the vehicle. Platelet aggregation was initiated with ADP (10 μM), U46619 (6 μM), thrombin (3 U/mL) or collagen (2.5 μg/mL). Data are the mean ± SD (n = 3), ^****P < 0.0001 and ^*P < 0.05 versus vehicle, analyzed by one-way ANOVA, followed by the Tukey multiple comparison test.
(§3) Institute of Cancer Research (ICR) mice (18–22 g), Sprague-Dawley rats (180–250 g) and New Zealand white rabbits (2–2.5 kg) were purchased from Nanjing Qinglongshan Animal Center (Jiangsu province, China). They were housed in a temperature-controlled room at 25 ± 2 °C and 50 ± 5% relative humidity with a l2 h dark/light cycle. They were given free access to food and water ad libitum. The animals were acclimatized for at least 1 week prior to use. […]
(§4) In vitro platelet aggregation assays were performed according to the turbidimetric method, as described previously. […] The extent of platelet aggregation inhibition by ACH-11 was calculated by the following formula (2): [drawing 2] where X represents the maximum aggregation rate of 5% DMSO-treated PRP and Y represents the maximum aggregation rate of sample-treated PRP. […]

The target in data set [5] is T1, FXa. Description: Determination of the inhibitory constant for FXa (kinetics, Lineweaver-Burk). The data set is classed as biochemical. The method, then:
Figure 3 Kinetic activity of ACH-11 to FXa in vitro. Lineweaver-Burk plot (inset) for ACH-11 kinetics in PBS at pH 8.34 and 37 °C with mixed inhibition in the presence of different concentrations of ACH-11: 0 μM (slope of 0.376), 5 μM (slope of 0.528) and 10 μM (slope of 0.698). The plots represent the mean of 3 independent measurements.
Enzyme kinetic activity was assayed as described earlier, with minor modifications. All enzymatic reactions were carried out in PBS at pH 8.34 and at 37 °C. Freshly prepared FXa at a constant concentration of 1 nM was used in each reaction. ACH-11 was dissolved in 5% DMSO. Activities were measured for 4 different fixed concentrations of substrate (73.5, 147, 294 and 588 μM) in different concentrations of ACH-11 (0, 5 and 10 μM). The rates of the enzymatic reactions were monitored at 405 nm for 20 min using the Powerwave XS (Biotek, USA).

The subject of data set [6] is ADP-induced rabbit platelet aggregation. Kind of data set: In vitro platelet aggregation assay, ADP-induced. The note with it: ADP 10 μM, rabbit PRP, turbidimetric, preincubated 5 min; 95% CI 185.36–225.02 μM. The format is cell-based. The method, then:
as §2, §3, §4

T1 sequence (P00742 235-488 limits assumed): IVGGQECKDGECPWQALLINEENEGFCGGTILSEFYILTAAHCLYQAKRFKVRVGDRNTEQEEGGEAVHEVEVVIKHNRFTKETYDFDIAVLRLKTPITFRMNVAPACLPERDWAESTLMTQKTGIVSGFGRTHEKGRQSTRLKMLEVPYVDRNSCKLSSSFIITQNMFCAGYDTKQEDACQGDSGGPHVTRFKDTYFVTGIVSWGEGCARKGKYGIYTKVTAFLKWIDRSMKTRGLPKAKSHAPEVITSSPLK
T1 sequence (P00742 41-179 partner limits assumed): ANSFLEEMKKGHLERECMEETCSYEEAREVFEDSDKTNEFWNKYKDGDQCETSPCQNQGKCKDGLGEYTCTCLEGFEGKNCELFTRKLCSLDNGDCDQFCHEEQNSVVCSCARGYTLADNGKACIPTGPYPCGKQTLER

On to “LTFPRIVFVLG [fraction C4, RP-HPLC fraction of fraction C, purity greater than 96%; peptide … (natural ACH-11)]”, for which, at FXa [1], the “FXa inhibitory activity (in words)” value was “displayed the highest FXa inhibitory activity”.
Consider `CC(=O)Oc1ccccc1C(=O)O` [Aspirin, aspirin], for which, in data set [2], the “reduction of thrombus weight” value amounted to 59.10 ± 2.98%. In the data set on bleeding time in mice (aspirin 9 mg/kg, 30 min after administration), this molecule displayed a bleeding time of 17.03 ± 2.86 min. For the same molecule, in data set [3] (vehicle 9/10, P = 0.0055 versus vehicle), the Numbers of lethal/total is 2/10. The Protection rate in data set [3] (vehicle 10%, P = 0.0055 versus vehicle, n = 10) is given as 80^** %.
For the molecule `CC[C@H](C)[C@H](NC(=O)[C@H](CCCNC(=N)N)NC(=O)[C@@H]1CCCN1C(=O)[C@H](Cc1ccccc1)NC(=O)[C@@H](NC(=O)[C@@H](N)CC(C)C)[C@@H](C)O)C(=O)N[C@H](C(=O)N[C@@H](Cc1ccccc1)C(=O)N[C@H](C(=O)N[C@@H](CC(C)C)C(=O)NCC(=O)O)C(C)C)C(C)C` [ACH-11, LTFPRIVFVLG] (H-LTFPRIVFVLG-OH), the bleeding time is reported as 10.71 ± 2.98 min in the data set with bleeding time in mice (ACH-11 1 mg/kg, 15 min after administration); 11.73 ± 2.68 min with bleeding time in mice (ACH-11 3 mg/kg, 15 min after administration); 14.01 ± 1.88 min in the data set on bleeding time in mice (ACH-11 9 mg/kg, 15 min after administration). Also, the “bleeding time (effect in words)” value in the data set with bleeding time in mice (ACH-11 3 and 1 mg/kg, compared with vehicle) was “did not significantly prolong the bleeding time”. The IC50 turned out to be 468 µM in data set [4] and 204 µM in data set [6]. The Ki on FXa [5] (PBS pH 8.34, 37 °C, FXa 1 nM, S-2222 73.5-588 μM, ACH-11 0, 5, 10 μM, 5% DMSO, mixed inhibition, mean of 3 independent measurements, read-out: Ki value for FXa inhibition towards S-2222) amounted to 9.02 µM. For the same molecule, the “change in Vmax and Km of FXa towards S-2222” value at FXa [5] (in the presence of ACH-11, PBS pH 8.34, 37 °C) is given as “A decrease in the Vmax value with a subsequent increase in the Km value”.

A word on the IC50: it is the concentration that gives 50% inhibition. As a reminder, the Ki is the equilibrium dissociation constant of an inhibitor or competing ligand from its target.
